Laboratory results reported in US20160067272A1, “METHODS FOR TREATING IMMUNE DISEASES” (priority 2013, published 2016).

Assays:
CD4+CD25+ nTregs = experiment: Functional in-vitro Treg cell assay (flow cytometry, ELISA, real-time PCR); type: cell-based, mouse
[1] = system: Human peripheral blood CD4+ T cells; experiment: Human CD4+ T cells under Th1 polarizing conditions (flow cytometry); type: cell-based; settings: increasing NAD+
Procedure: The inventors next investigated whether NAD^− regulates CD4^+ T cell differentiation in Th1 polarizing conditions. Isolated naïve CD4^+ T cells were cultured with anti-CD3/CD28 antibodies in presence of recombinant IL-12 and IL-2 cytokines and anti-IL4 antibody. […] In contrast to Th0 polarizing conditions, NAD^+ induced a robust IL-10 secretion (>3500 pg/ml) in Th1 cytokine environment (FIG. 1A). Furthermore, pro-inflammatory cytokines such as TNF-α and IL-6 were reduced by NAD^+ (FIG. 7C). […] Furthermore, the study tested whether NAD^+ promoted the shift of human CD4^+ T helper cells in Th1 polarizing conditions towards IL-10 cytokine production. Human peripheral blood CD4^| T cells were activated with anti-CD3/CD28 antibodies under Th1 polarizing conditions (recombinant IL-12 and IL-2 cytokines and anti-IL4 antibody) with increasing concentrations of NAD+. After 96 hours of culture, CD4^+IL-10^+IFNγ^+ cell frequency was assessed by flow cytometry analysis. […]
(§1) All recombinant cytokines and antibodies were purchased from EBIOSCIENCE except recombinant TGF-β cytokine (R&D SYSTEMS, Minneapolis, Minn.). After 96 hrs of culture supernatants and cells were collected and analyzed by ELISA and flow cytometry, respectively.

naïve CD4+ T cells = experiment: Naïve CD4+ T cell differentiation under iTreg polarizing conditions; type: cell-based, mouse
From the text: Next, it was investigated whether NAD^+ modulates CD4^+ T differentiation under iTreg polarizing conditions. Isolated naïve CD4^+ T cells were activated with anti-CD3/CD28 antibodies in presence of recombinant TGFβ and IL-2 cytokines and blocking anti-IL-4, anti-IL-12 and anti-IFNγ antibodies.
Single-cell leukocyte suspensions were obtained from spleens from 8-10 week old DBA mice and CD4^− T cells were isolated by negative selection using a CD4^+ T cell isolation kit (MILTENYI BIOTEC, Bergisch Gladbach, Germany). Cells were further sorted using α-CD4-PE (EBIOSCIENCE, San Diego, Calif.) and purities of CD4^+ T cells after isolation were >98%.
as §1
Fluorescently labeled anti-mouse α-CD4 (GK1.5), α-CD25 (PC61), α-IFN-γ (XMG1.2) and unlabeled α-CD16/CD32 (2.4G2) antibodies were obtained from BD BIOSCIENCES (San Jose, Calif.). Fluorescently labeled anti-mouse α-IL-4 (FJK-16s), α-IL-10 (JES5-16E3), α-IL-17A (eBio17B7), and anti-TGFβ (TW7-16B4) were obtained from eBIOSCIENCE (San Diego, Calif.). Intracellular staining for IL-4, IL-10, IL-17A, IFNγ and TGFβ was performed according to manufacturers' protocols. Splenocytes were re-stimulated in complete media (RPMI media containing 10% FCS, 1% L-Glutamine, 1% Penicillin/Streptomycin; all Bio Whittaker, Walkersville, Md.) for 4 hours at 37° C. with ionomycin, phorbol 12-myristate 13-acetate and Brefelding A (EBIOSCIENCE). Cells were fixed and permeabilized using CYTOFIX/CYTOPERM solution (BD BIOSCIENCES). Flow cytometry measurements of single-cell suspensions were performed on a FACSCalibur using standard procedures and data were analyzed using FLOWJO software (TREE STAR, Ashland, Oreg.).

[2] = nTregs with NAD+, 24 hrs of culture
[3] = nTregs with NAD+, after 4 days of culture
[4] = nTregs, increasing NAD+, 96 hrs, real-time PCR and ELISA

NC(=O)c1ccc[n+]([C@@H]2O[C@H](COP(=O)([O-])OP(=O)(O)OC[C@H]3O[C@@H](n4cnc5c(N)ncnc54)[C@H](O)[C@@H]3O)[C@@H](O)[C@H]2O)c1 [NAD+, nicotinamide adenine dinucleotide]
cells able to produce IL-17A (CD4+CD25+ nTregs; 250 μM NAD+, 96 hrs of culture): more than 16% | nTregs apoptosis (CD4+CD25+ nTregs; Annexin V, increasing NAD+): induced | proliferation of CD4+CD25−IL-17A+Foxp3+ cells (CFSE) (CD4+CD25+ nTregs; NAD+, dose dependent manner, no exogenous IL-23): able to proliferate | frequencies of CD4+CD25+FoxP3+ cells (CD4+CD25+ nTregs; increased NAD+ concentrations, IL-2, no TGFβ/IL-6): reduced | apoptosis of CD4+CD25−IL-17A+Foxp3+ cells (annexin V) (CD4+CD25+ nTregs; increasing NAD+, 48 and 96 hrs): did not become apoptotic | IL-17A cytokine production (CD4+CD25+ nTregs; nTregs from STAT3−/− mice vs wild type, with NAD+, 96 hrs, ELISA): reduced | frequency of IL-17A+ cells (CD4+CD25+ nTregs; nTregs from STAT3−/− mice vs wild type, with NAD+, 96 hrs, flow cytometry): significant decreased, but not complete | Foxp3 mRNA level (CD4+CD25+ nTregs; [2]): significantly increased | GATA3 expression level (CD4+CD25+ nTregs; [2]): remained unchanged | RORγt mRNA level (CD4+CD25+ nTregs; [2]): > 10 fold | STAT3 mRNA level (CD4+CD25+ nTregs; [2]): > 10 fold | STAT5 expression level (CD4+CD25+ nTregs; [2]): remained unchanged | Tbx21 expression level (CD4+CD25+ nTregs; [2]): remained unchanged | Foxp3 mRNA level (CD4+CD25+ nTregs; [3]): remained significantly increased | GATA-3 mRNA level (CD4+CD25+ nTregs; [3]): decreased significantly | RORγt mRNA level (CD4+CD25+ nTregs; [3]): remained significantly increased | STAT3 mRNA level (CD4+CD25+ nTregs; [3]): remained significantly increased | STAT5 mRNA level (CD4+CD25+ nTregs; [3]): decreased significantly | Tbx21 mRNA level (CD4+CD25+ nTregs; [3]): decreased significantly | IFNγ mRNA and cytokine levels (CD4+CD25+ nTregs; [4]): decreased in a dose dependent manner | IL-4 mRNA and cytokine levels (CD4+CD25+ nTregs; [4]): decreased in a dose dependent manner | IL-10 mRNA and cytokine levels (CD4+CD25+ nTregs; [4]): decreased dramatically | IL-17A mRNA and protein levels (CD4+CD25+ nTregs; [4]): increased in a dose dependent manner | TGFβ mRNA and cytokine levels (CD4+CD25+ nTregs; [4]): decreased dramatically | IL-17A [1]: moderate increase | IL-10 cytokine production by CD4+IFN-γ producing cells ([1]; flow cytometry): robust IL-10 cytokine production | amount of TGFβ (naïve CD4+ T cells): reduced amount | IL-6 production (naïve CD4+ T cells; ELISA): remained unchanged | IL-10 secretion (naïve CD4+ T cells; ELISA): reduced | IL-17A cytokine production (naïve CD4+ T cells; ELISA): increased | TNF-α production (naïve CD4+ T cells; ELISA): inhibited | frequency of CD4+IL10+ cells (naïve CD4+ T cells; flow cytometry): robust decreased frequency | frequency of CD4+IL17A+ cells (naïve CD4+ T cells; flow cytometry): increased frequency | number of CD4+TGFβ+IL-10+ cells (naïve CD4+ T cells; flow cytometry): decreased number
